Assay results reported in ChEMBL document CHEMBL4480440, “Synthesis and radical-scavenging activity of C-methylated fisetin analogues” (Bioorg Med Chem, 2019).

Key:
[1] = Antioxidant activity assessed as galvinoxyl radical scavenging activity by measuring second order rate constant by UV-vis spectrometric analysis; type: functional
[2] = Antioxidant activity assessed as galvinoxyl radical scavenging activity by measuring increase in pseudo first-order rate constant UV-vis spectrometric analysis; type: functional

Compound | K [1] | Activity [2]
O=c1c(O)c(-c2ccc(O)c(O)c2)oc2cc(O)ccc12 | 7.58 ×10¹ /M/s | –
Cc1c(-c2oc3cc(O)ccc3c(=O)c2O)ccc(O)c1O | 1.55 ×10² /M/s | –
Cc1cc(-c2oc3cc(O)ccc3c(=O)c2O)c(C)c(O)c1O | 1.58 ×10³ /M/s | Dose-dependent effect
Cc1cc(-c2oc3cc(O)ccc3c(=O)c2O)cc(O)c1O | 1.66 ×10⁵ /M/s | –
